According to patent US10315990B2, “Isothiocyanate compounds and isothiocyanate XPO1 protein inhibitor drugs thereof” (DRIVINGFORCE THERAPEUTICS Co., Ltd., priority 2015, dated 2019):

Assays:
[1] = test system: IBD animal model; test: Macroscopic pathological changes of IBD animal model (enteroclysis with TNBS); type: in vivo, SD rats; settings: TNBS rats; for Macroscopic pathological score: 80 mg/kg intragastrically daily, score 0-5, 10 animals
Procedure: Eight-week-old male SD rats (10 rats per group) were fasted for 24 hours and anaesthetized with diethyl ether. 50% ethanol and TNBS (2,4,6-trinitrobenzenesulfonic acid) were mixed to prepare a solution. In the IBD model group, a tube made of vinyl resin was inserted 5 cm from anus, and enteroclysis was performed with the TNBS solution in a dose of 100 mg/kg. The rats were hung upside down 30 seconds later after the enteroclysis to ensure no leakage of the TNBS solution. In the control group, the TNBS solution was replaced with normal saline with which enteroclysis was performed. Seven days later after the enteroclysis with the TNBS solution or normal saline, animals were sacrificed and dissected. […] Two weeks later after treated with the drugs, the animals were sacrificed and dissected, and large intestine thereof was taken out and fixed in 4% formalin solution for 30 minutes. The large intestine of the animals was cut lengthwise from the mesentery side to take photos for rectum portion and measure the weight of rectum. Based on the macroscopic observation and judgment score (Table 2-1), ulceration and bleeding states of rectum portion were scored according to the macroscopic observation scoring standard.

[2] = test system: IL-6; test: Serum IL-6 level of IBD animal model (ELISA); type: in vivo, SD rats; settings: 80 mg/kg, three days after making the TNBS model
Source text: (§1) Inflammatory bowel disease is an autoimmune disease. […] The therapeutic effect of the representative compound for the immune system disease or inflammation can be assessed by detecting change in levels of some important cytokines such as TNF-α and IL-6 at downstream of the signal path.

[3] = test system: TNF-α; test: Serum TNF-α level of IBD animal model (ELISA); type: in vivo, SD rats; settings: 80 mg/kg, three days after making the TNBS model
Source text: as §1

[4] = test system: HMLE-Snail cell line; test: Formation of HMLE-Snail cell line spheroids; type: cell-based; settings: 10 μg/ml, treated for 24 hours; control = 100; read-out: Colony (%): cell colony number of drug-treated group/cell colony number of control group × 100%
Procedure: HMLE-Snail cell line is one of most classic cell models for studying tumor cell metastasis and EMT path. HMLE-Snail cell line highly expresses Snail protein, and thus one of most remarkable features thereof is that it has spherical cellular morphology (spheroid). […] The HMLE-Snail cell line used in the present invention was donated by Dr. Robert Weinberg from America Massachusetts Whitehead Institute. HMLE-Snail cells were suspended in a liquid culture medium (in which B-27 and N-2 were added, purchased from America Invitrogen Corporation) containing DMEM/F12 in a ratio of 1:1, in an amount of 1.0×10^3 cells/ml, and cultured in an ultra low attachment culture plate so as to allow spheroids to be formed. Seven days later, spheroids were collected by centrifugation, and counted. […] Docetaxel is a common clinical chemotherapy drug.

[5] = biological target: T1, XPO1 protein (Homo sapiens, UniProt O14980); test: Inhibitory activity for XPO1 protein (NES-GFP nuclear export, laser confocal microscope); type: cell-based; settings: NES-GFP nuclear export, cells treated for 2 hours
T1 construct: Sixteen hours later, NES-GFP plasmid was transfected with liposome; endogenous in cells
T1 sequence (O14980 whole entry, species assumed): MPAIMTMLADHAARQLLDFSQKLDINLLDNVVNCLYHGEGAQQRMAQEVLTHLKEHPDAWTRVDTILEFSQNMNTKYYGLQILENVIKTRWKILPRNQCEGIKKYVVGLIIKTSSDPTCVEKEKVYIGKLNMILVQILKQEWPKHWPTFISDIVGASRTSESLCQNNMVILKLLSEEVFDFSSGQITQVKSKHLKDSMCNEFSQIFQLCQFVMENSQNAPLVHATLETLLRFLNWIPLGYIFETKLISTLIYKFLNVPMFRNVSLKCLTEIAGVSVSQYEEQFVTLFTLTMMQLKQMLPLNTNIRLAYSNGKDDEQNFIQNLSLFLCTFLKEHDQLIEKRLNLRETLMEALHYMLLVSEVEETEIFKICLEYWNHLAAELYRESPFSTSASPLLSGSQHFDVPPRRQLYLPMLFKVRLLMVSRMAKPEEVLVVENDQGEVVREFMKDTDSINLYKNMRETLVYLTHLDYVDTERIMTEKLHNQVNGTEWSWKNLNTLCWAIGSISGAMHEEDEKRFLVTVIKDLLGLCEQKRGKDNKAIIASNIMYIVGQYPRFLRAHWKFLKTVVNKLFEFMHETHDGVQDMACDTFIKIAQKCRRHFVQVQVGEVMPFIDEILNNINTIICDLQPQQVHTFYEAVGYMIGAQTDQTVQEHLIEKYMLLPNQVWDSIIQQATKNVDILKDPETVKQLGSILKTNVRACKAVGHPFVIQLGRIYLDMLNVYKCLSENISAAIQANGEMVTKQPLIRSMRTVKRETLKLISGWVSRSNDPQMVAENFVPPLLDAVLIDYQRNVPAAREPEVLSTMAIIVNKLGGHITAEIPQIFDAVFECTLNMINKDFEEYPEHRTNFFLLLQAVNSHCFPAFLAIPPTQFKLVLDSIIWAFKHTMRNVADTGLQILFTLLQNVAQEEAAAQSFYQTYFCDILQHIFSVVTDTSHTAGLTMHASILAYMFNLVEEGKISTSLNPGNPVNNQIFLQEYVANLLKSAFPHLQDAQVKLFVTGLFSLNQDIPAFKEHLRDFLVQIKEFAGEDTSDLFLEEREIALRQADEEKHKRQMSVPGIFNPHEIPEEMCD
Source text: NES (nuclear export signal) is a nuclear export signal peptide recognized by XPO1 protein. XPO1 recognizes NES sequence peptide segment of biomacromolecule and exports the biomacromolecule out of nucleus. NES-GFP protein is obtained by co-expressing green fluorescence protein GFP and NES sequence peptide segment by using a eukaryotic expression plasmid. Inhibitory activity of the representative compound for XPO1 protein can be assessed by detecting influence of the compound on NES-GFP cell localization.
The cells were digested with trypsin, counted, and inoculated on 96-well plate in an amount of 1.5×10^4 cells per well. Sixteen hours later, NES-GFP plasmid was transfected with liposome.

[6] = test system: SK-OV3 (high metastasis type ovarian cancer cell line); test: Ovarian cancer intraperitoneal metastasis animal model; type: in vivo, nudemice (BALB/c-nu/nu); settings: Mus musculus, SK-OV-3, ip; for response vs control in vivo at 80 mg/kg: 80 mg/kg intraperitoneal injection once a day for 3 weeks; for mortality at 80 mg/kg: six mice per group, read-out: Mortality (within 30 days) (converted)
Procedure: The ovarian cancer intraperitoneal metastasis animal model is one of most classic animal models for studying anti-ovarian cancer metastasis drug. Sixty 5 to 6-week-old female nudemice with similar weight (BALB/c-nu/nu) were chosen. SK-OV3 (high metastasis type ovarian cancer cell line) stably expressing green fluorescence protein was screened, and prepared into a cell suspension of 2×10^6 cells/100 μl with serum-free PRMI1640 medium. […] Three weeks later, the cancer was detected with a small animal in vivo imaging apparatus (Xenogen, School of Medicine, Shanghai Jiaotong University) and photos thereof were taken. […] In the table, T represents the drug-treated group, and C represents the blank control group. T/C is (V/V0 of compound-treated group)/(V/V0 of blank control group) in which V represents the cancer volume of mouse on the day the detection was performed, and V0 represents the cancer volume of mouse on the day the administration begun.

[7] = test system: NCI-H1975; test: cells; type: cell-based; settings: Homo sapiens; NCI-H1975, 72 hours; read-out: IC50
Procedure: (§2) NCI-H1975 and NCI-H1650 are two typical high metastasis type lung cancer cell lines. The therapeutic effect of the representative compound for the metastasis type lung cancers can be preliminarily assessed by detecting the inhibitory activity of the representative compound for the two cell lines. The lung cancer cell line was inoculated on 96-well cell culture plate in an amount of 6000 cells per well and cultured at 37° C. for 24 hours, and then treated solely with the compound added therein and cultured. Seventy-two hours later, MTT or CCK-8 method was used to detect the inhibitory activity of the compound for the two lung cancer cell lines.

[8] = test system: NCI-H1650; test: cells; type: cell-based; settings: Homo sapiens; NCI-H1650, 72 hours; read-out: IC50
Procedure: as §2

[9] = test system: HCT116; test: Inhibitory activity for high metastasis type colon cancer cell line (MTT or CCK-8); type: cell-based; settings: Homo sapiens, HCT-116; HCT116, 72 hours; read-out: IC50
Procedure: (§3) SW620 and HCT116 are two typical high metastasis type colon cancer cell lines. The colon cancer cell line was inoculated on 96-well cell culture plate in an amount of 6000 cells per well and cultured at 37° C. for 24 hours, and then treated solely with the compound added therein and cultured. Seventy-two hours later, MTT or CCK-8 method was used to detect the inhibitory activity of the compound for the two high metastasis type colon cancer cell lines.

[10] = test system: SW620; test: as above; type: cell-based; settings: Homo sapiens, SW-620; SW620, 72 hours; read-out: IC50
Procedure: as §3

Compound | activity at 10 µg/mL [4] | Activity (μM): inhibitory activity for XPO1 protein (full inhibitory concentration) [5] | also measured
Nc1ccc(O)c(C(=O)O)c1 [Compound 5-ASA, 5-aminosalicylic acid, reference compound] | – | – | Macroscopic pathological score [1]: 4.0 ± 0.2; colon tissue bleeding and ulceration phenomena (in words) ([1]; 80 mg/kg): small relief extent; Serum IL-6 level, Animal-1 [2]: 2.7 ng/mL; Serum IL-6 level, Animal-2 [2]: 2.2 ng/mL; Serum IL-6 level, Animal-3 [2]: 2.3 ng/mL; Serum TNF-α level, Animal-1 [3]: 1.7 ng/mL; Serum TNF-α level, Animal-2 [3]: 1.8 ng/mL; Serum TNF-α level, Animal-3 [3]: 2.0 ng/mL
CC(C)C[S+]([O-])/C=C/CCN=C=S (stereo not drawn) [Compound F-04, reference compound] | 60 to 65% | 10 to 15 µM | –
[O-][S+](/C=C/CCN=C=S)c1ccc(Br)cc1 (stereo not drawn) [Compound I-02] | 30 to 35% | 1 to 5 µM | Macroscopic pathological score [1]: 2.0 ± 0.4
COc1cc([S+]([O-])/C=C/CCN=C=S)cc(C(F)(F)F)c1 (stereo not drawn) [Compound I-05] | 20 to 25% | 0.5 to 1 µM | –
NS(=O)(=O)c1cc([S+]([O-])/C=C/CCN=C=S)cc(C(F)(F)F)c1 (stereo not drawn) [Compound I-07] | 20 to 25% | 0.5 to 1 µM | –
N#Cc1cc([S+]([O-])/C=C/CCN=C=S)cc(C(F)(F)F)c1 (stereo not drawn) [Compound I-08] | 15 to 20% | 0.5 to 1 µM | response vs control in vivo at 80 mg/kg ([6]; 504 h, read-out: T/C (%)): 23%; mortality at 80 mg/kg ([6]; 720 h): 0%; Serum IL-6 level, Animal-1 [2]: 0.8 ng/mL; Serum IL-6 level, Animal-2 [2]: 0.7 ng/mL; Serum IL-6 level, Animal-3 [2]: 0.8 ng/mL; IC50 [7]: 0.17 µM; IC50 [8]: 0.2 µM; Serum TNF-α level, Animal-1 [3]: 1.0 ng/mL; Serum TNF-α level, Animal-2 [3]: 1.2 ng/mL; Serum TNF-α level, Animal-3 [3]: 1.1 ng/mL
[O-][S+](/C=C/CCN=C=S)c1ccc(N2CCOCC2)cc1 (stereo not drawn) [Compound I-09] | 25 to 30% | 1 to 5 µM | –
[O-][S+](/C=C/CCN=C=S)c1ccc2c(c1)CCCC2 (stereo not drawn) [Compound I-10] | 30 to 35% | 1 to 5 µM | –
[O-][S+](/C=C/CCN=C=S)c1ccc2cc3ccccc3cc2c1 (stereo not drawn) [Compound I-12] | 30 to 35% | 1 to 5 µM | –
[O-][S+](/C=C/CCN=C=S)c1ccc2cccc3c2c1CC=C3 (stereo not drawn) [Compound I-13] | 30 to 35% | 1 to 5 µM | –
[O-][S+](/C=C/CCN=C=S)c1ccc2c(c1)Cc1ccccc1-2 (stereo not drawn) [Compound I-14] | 25 to 30% | 1 to 5 µM | –
[O-][S+](/C=C/CCN=C=S)c1cccnc1 (stereo not drawn) [Compound I-15] | 35 to 40% | 1 to 5 µM | –
[O-][S+](/C=C/CCN=C=S)c1cncc(C(F)(F)F)c1 (stereo not drawn) [Compound I-16] | 35 to 40% | 0.5 to 1 µM | –
[O-][S+](/C=C/CCN=C=S)c1ccc2ncccc2c1 (stereo not drawn) [Compound I-17] | 30 to 35% | 0.5 to 1 µM | response vs control in vivo at 80 mg/kg ([6]; 504 h, read-out: T/C (%)): 27%; mortality at 80 mg/kg ([6]; 720 h): 0%
[O-][S+](/C=C/CCN=C=S)c1ccc2ncncc2c1 (stereo not drawn) [Compound I-18] | 30 to 35% | 1 to 5 µM | –
O=c1ccc2cc([S+]([O-])/C=C/CCN=C=S)ccc2o1 (stereo not drawn) [Compound I-19] | 25 to 30% | 1 to 5 µM | –
[O-][S+](/C=C/CCN=C=S)c1nc2ccccc2s1 (stereo not drawn) [Compound I-20] | 30 to 35% | 1 to 5 µM | Macroscopic pathological score [1]: 2.0 ± 0.3; Serum IL-6 level, Animal-1 [2]: 1.0 ng/mL; Serum IL-6 level, Animal-2 [2]: 1.1 ng/mL; Serum IL-6 level, Animal-3 [2]: 1.0 ng/mL; Serum TNF-α level, Animal-1 [3]: 1.3 ng/mL; Serum TNF-α level, Animal-2 [3]: 1.2 ng/mL; Serum TNF-α level, Animal-3 [3]: 1.1 ng/mL
[O-][S+](/C=C/CCN=C=S)c1nc2cc(C(F)(F)F)ccc2s1 (stereo not drawn) [Compound I-21] | 30 to 35% | 1 to 5 µM | –
[O-][S+](/C=C/CCN=C=S)c1nc2ccccc2[nH]1 (stereo not drawn) [Compound I-22] | 30 to 35% | 1 to 5 µM | –
[O-][S+](/C=C/CCN=C=S)c1nc2ccc(C(F)(F)F)cc2[nH]1 (stereo not drawn) [Compound I-23] | 30 to 35% | 1 to 5 µM | –
COc1ccc2nc([S+]([O-])/C=C/CCN=C=S)[nH]c2c1 (stereo not drawn) [Compound I-24] | 20 to 25% | 1 to 5 µM | –
[O-][S+](/C=C/CCN=C=S)c1ccc(-c2ccccc2)cc1 (stereo not drawn) [Compound I-26] | 20 to 25% | 0.5 to 1 µM | –
COc1ccc(Sc2ccc([S+]([O-])/C=C/CCN=C=S)cc2)cc1 (stereo not drawn) [Compound I-28] | 15 to 20% | 0.5 to 1 µM | IC50 [9]: 0.15 µM; IC50 [10]: 0.19 µM
CC(=O)O[C@@]12CO[C@@H]1C[C@H](O)[C@@]1(C)C(=O)[C@H](O)C3=C(C)[C@@H](OC(=O)[C@H](O)[C@@H](NC(=O)OC(C)(C)C)c4ccccc4)C[C@@](O)([C@@H](OC(=O)c4ccccc4)[C@H]21)C3(C)C [Docetaxel, docetaxel] | 81% | – | response vs control in vivo at 20 mg/kg ([6]; 504 h, 20 mg/kg intraperitoneal injection once a day for 3 weeks, read-out: T/C (%)): 77%; mortality at 20 mg/kg ([6]; 720 h, read-out: Mortality (within 30 days)): 0%
C[S+]([O-])/C=C/CCN=C=S (stereo not drawn) [SFE, sulforaphene, reference compound] | – | 10 to 15 µM | –
